{
  "source": "patent US10955416B2",
  "about": "“Compositions for detecting mutant anaplastic lymphoma kinase in human lung cancer” (CELL SIGNALING TECHNOLOGY, INC., priority 2006, dated 2021)",
  "origin": "cited, not measured here",
  "system": "lymphoma cells",
  "conditions": "Marzec et al., Lab. Invest. 85(12): 1544-54 (2005); cited from earlier work",
  "data": [
    {"smiles": "COc1cc2ncnc(Nc3ccc(O)c(Br)c3)c2cc1OC", "note": "[WHI-154]", "values": [
      {"measurement": "apoptosis in lymphoma cells", "result": "induce apoptosis"},
      {"measurement": "proliferation in lymphoma cells", "result": "suppress proliferation"}
    ]},
    {"smiles": "COc1cc2ncnc(Nc3ccc(O)cc3)c2cc1OC", "note": "[WHI-131]", "values": [
      {"measurement": "apoptosis in lymphoma cells", "result": "induce apoptosis"},
      {"measurement": "proliferation in lymphoma cells", "result": "suppress proliferation"}
    ]}
  ]
}
